Laboratory results published in patent US20220348878A1, “CELL PROLIFERATION INHIBITOR” (BOURBON CORPORATION, priority 2019, published 2022).

What was measured:
Format in all cases: cell-based
[1] = system: Human mesenchymal stem cells; experiment: Test for confirming cell proliferation inhibitory effect (Example 1), phase-contrast observation of cell state; details: Day 9, no medium exchange; for Cell state: number of dead cells and cell proliferation: 1 mM, 5 mM or 8 mM glutamic acid
Method: (§1) Human mesenchymal stem cells (manufactured by Lonza, Catalog No. PT-5006) were cultured in a cell culture dish (100-mm culture dish, obtained from SANPLATEC CO., LTD.) coated with 10 μg/ml Fibronectin (Promocell) at 37° C. in the presence of 5% CO2, and used. As the medium, the DMEM basal medium was used.
(§2) After cell culture, the cells were recovered using a 0.1% by weight trypsin/1 mM EDTA solution, and seeded on a 12-well plate (obtained from Corning Co., Ltd.), and cultured overnight at 37° C. in the presence of 5% CO2 using the above DMEM basal medium.
(§3) The DMEM basal medium was replaced with the desired cell maintenance medium, and the cells were cultured (“Day 0 after culture”). No medium exchange was performed during the culture period.
(§4) Further, the same culture test as described above was conducted except that 1 mM, 5 mM or 8 mM of glutamic acid was added to the basal medium for cell culture.

[2] = system: Human mesenchymal stem cell; experiment: Culture test with medium exchange every three days (Example 2), cell count; details: for Number of cells: Glutamic acid: 8 mM, average of three wells
Method: as §1, §2, §3
The same culture test as in Example 1 was conducted except that the medium was exchanged every three days during the culture period.
Tables 1 to 2 indicate the number of cells for each culture day. […] Note that the number of cells is an average of the numbers of cell counts in three wells, and the counts is measured by the following method.
(§5) After removing the culture supernatant of the cells by suction and washing the cells by using PBS, the cells were peeled off by using 0.1% trypsin/1 mM EDTA solution (FUJIFILM Wako Pure Chemical Corporation). The reaction of the releasing solution was stopped by adding the medium, and the cells were recovered. And then, the cell counts was conducted by using the Countess™ II Automated Cell Counter (Thermo Fisher Scientific).

Human fibroblasts = experiment: Test for confirming cell proliferation inhibitory effect (Example 1), phase-contrast observation of cell state; details: Day 9, no medium exchange; for Cell state: number of dead cells and cell proliferation: 1 mM, 5 mM or 8 mM glutamic acid
Method: Human fibroblasts (Catalog No. CC-2511) were cultured in a gelatin-coated cell culture dish (100-mm culture dish, obtained from SANPLATEC CO., LTD.) at 37° C. in the presence of 5% CO2, and used. As the medium, the DMEM basal medium was used.
as §2, §3, §4

[3] = system: Human mesenchymal stem cell; experiment: Culture test with medium exchange every three days (Example 2), cell count; details: w/o Glc medium instead of w/Glc medium; Glutamic acid 8 mM; FIG. 3, Day 12
Human fibroblast = experiment: as above; details: for Number of cells: Glutamic acid: 8 mM, average of three wells
Method: As the medium, the DMEM basal medium was used.
After cell culture, the cells were recovered using a 0.1% by weight trypsin/1 mM EDTA solution, and seeded on a 12-well plate (obtained from Corning Co., Ltd.), and cultured overnight at 37° C. in the presence of 5% CO2 using the above DMEM basal medium. […]
Note that the number of cells is an average of the numbers of cell counts in three wells, and the counts is measured by the following method.
as §5

[4] = glucose-free DMEM basal medium (w/o Glc)
[5] = xylose DMEM basal medium (w/Xy)

## N[C@@H](CCC(=O)O)C(=O)O [Glutamic acid, glutamic acid]
[1]; [4]
  Cell state: number of dead cells and cell proliferation: the number of dead cells decreased and cell proliferation was inhibited as the glutamic acid concentration increased
[1]; w/Xy, glutamic acid concentration 5 to 8 mM
  Dead cells observed: dead cells were hardly observed
[1]; [5]
  Cell state: number of dead cells and cell proliferation: the number of dead cells decreased and cell proliferation was inhibited as the glutamic acid concentration increased
[2]; Medium: w/Glc, Day 0
  Number of cells: 0.356 ×10^4 cells/cm^2
[2]; Medium: w/Glc, Day 3
  Number of cells: 1.12 ×10^4 cells/cm^2
[2]; Medium: w/Glc, Day 6
  Number of cells: 2.96 ×10^4 cells/cm^2
[2]; Medium: w/Glc, Day 9
  Number of cells: 3.23 ×10^4 cells/cm^2
[2]; Medium: w/Glc, Day 12
  Number of cells: 3.75 ×10^4 cells/cm^2
[2]; Medium: w/Glc, Day 15
  Number of cells: 4.46 ×10^4 cells/cm^2
[2]; Medium: w/Glc, Day 18
  Number of cells: 5.37 ×10^4 cells/cm^2
[2]; Medium: w/Xy, Day 0
  Number of cells: 0.356 ×10^4 cells/cm^2
[2]; Medium: w/Xy, Day 3
  Number of cells: 0.855 ×10^4 cells/cm^2
[2]; Medium: w/Xy, Day 6
  Number of cells: 0.998 ×10^4 cells/cm^2
[2]; Medium: w/Xy, Day 9
  Number of cells: 1.65 ×10^4 cells/cm^2
[2]; Medium: w/Xy, Day 12
  Number of cells: 1.87 ×10^4 cells/cm^2
[2]; Medium: w/Xy, Day 15
  Number of cells: 2.77 ×10^4 cells/cm^2
[2]; Medium: w/Xy, Day 18
  Number of cells: 3.90 ×10^4 cells/cm^2
[2]; Medium: w/o Glc, Day 0
  Number of cells: 0.356 ×10^4 cells/cm^2
[2]; Medium: w/o Glc, Day 3
  Number of cells: 0.591 ×10^4 cells/cm^2
[2]; Medium: w/o Glc, Day 6
  Number of cells: 0.662 ×10^4 cells/cm^2
[2]; Medium: w/o Glc, Day 9
  Number of cells: 1.06 ×10^4 cells/cm^2
[2]; Medium: w/o Glc, Day 12
  Number of cells: 1.04 ×10^4 cells/cm^2
[2]; Medium: w/o Glc, Day 15
  Number of cells: 1.50 ×10^4 cells/cm^2
[2]; Medium: w/o Glc, Day 18
  Number of cells: 1.58 ×10^4 cells/cm^2
[2]; w/Glc medium, Glutamic acid 8 mM, from Table 2
  Cell proliferation inhibition compared with the control test with w/Glc medium: it was possible to inhibit the cell proliferation till 18 days after
[2]; w/Xy medium instead of w/Glc medium, Glutamic acid 8 mM, from Table 2
  Cell proliferation inhibitory effect: the cell proliferation inhibitory effect was remarkable
Human fibroblasts; [4]
  Cell state: number of dead cells and cell proliferation: the number of dead cells decreased and cell proliferation was inhibited as the glutamic acid concentration increased
Human fibroblasts; w/Xy, glutamic acid concentration 1 to 8 mM
  Dead cells observed: dead cells were hardly observed
Human fibroblasts; [5]
  Cell state: number of dead cells and cell proliferation: the number of dead cells decreased and cell proliferation was inhibited as the glutamic acid concentration increased
[3]
  Condition of cells (whitening around cells): the ratio of whitening around cells ware large, and the conditions of cells deteriorated
Human fibroblast; Medium: w/G1c, Day 0
  Number of cells: 0.07 ×10^5 cells/cm^2
Human fibroblast; Medium: w/G1c, Day 6
  Number of cells: 0.56 ×10^5 cells/cm^2
Human fibroblast; Medium: w/G1c, Day 12
  Number of cells: 1.46 ×10^5 cells/cm^2
Human fibroblast; Medium: w/G1c, Day 18
  Number of cells: 1.72 ×10^5 cells/cm^2
Human fibroblast; Medium: w/Xy, Day 0
  Number of cells: 0.07 ×10^5 cells/cm^2
Human fibroblast; Medium: w/Xy, Day 6
  Number of cells: 0.37 ×10^5 cells/cm^2
Human fibroblast; Medium: w/Xy, Day 12
  Number of cells: 1.13 ×10^5 cells/cm^2
Human fibroblast; Medium: w/Xy, Day 18
  Number of cells: 1.28 ×10^5 cells/cm^2
Human fibroblast; Medium: w/o G1c, Day 0
  Number of cells: 0.07 ×10^5 cells/cm^2
Human fibroblast; Medium: w/o G1c, Day 6
  Number of cells: 0.27 ×10^5 cells/cm^2
Human fibroblast; Medium: w/o G1c, Day 12
  Number of cells: 0.08 ×10^5 cells/cm^2
Human fibroblast; w/Glc medium, Glutamic acid 8 mM, from Table 1
  Cell proliferation inhibition compared with the control test with w/Glc medium: the cell proliferation was inhibited till 6 days after
Human fibroblast; w/Xy medium instead of w/Glc medium, Glutamic acid 8 mM, from Table 1
  Cell proliferation inhibitory effect: the cell proliferation inhibitory effect was remarkable, and it was possible to inhibit the cell proliferation for a longer period
Human fibroblast; w/o Glc medium instead of w/Glc medium, Glutamic acid 8 mM, from Table 1
  Number of cells and dead cells: the number of cells after 12 days was remarkably less, and the dead cells occurred
